# Test results: ChEMBL document CHEMBL1201862, “PubChem BioAssay data set” (2004)
# Activity calls are given as the source filed them.
# How the values were obtained:
# [1] = cytotoxicity in HEK-293T cells, dose response, cytotoxicity control for BCR NF-kB inhibitor project, luminescence, B-cell screen hits (AID 489021); format: functional, cell-based;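 note: HEK-293T cells carrying an NF-kB luciferase reporter; cells exposed to compound for about 14 hours before viability readout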
# [2] = biological target: DNA dC->dU-editing enzyme APOBEC-3A (Homo sapiens, UniProt P31941); assay: APOBEC3A DNA deaminase inhibitors, dose response, biochemical (AID 504722); format: functional
# [3] = biological target: DNA dC->dU-editing enzyme APOBEC-3G (Homo sapiens, UniProt Q9HC16); assay: Dose Response confirmation of small molecule APOBEC3G DNA Deaminase Inhibitors via a fluorescence-based single-stranded DNA deaminase assay. [Related pubchem assays (depositor defined):AID493012, AID493028]; format: functional
# [4] = biological target: Peroxisome proliferator-activated receptor gamma/Nuclear receptor coactivator 3 (Homo sapiens, UniProt P37231); format: functional;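 note: agonist potency for raising coactivator recruitment to the receptor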
# [5] = biological target: Peroxisome proliferator-activated receptor gamma/Nuclear receptor coactivator 1 (Homo sapiens, UniProt P37231); format: functional;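 note: agonist potency as compounds enhance coactivator SRC-1 recruitment to PPARgamma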
# [6] = biological target: Peroxisome proliferator-activated receptor gamma/Nuclear receptor coactivator 2 (Homo sapiens, UniProt P37231); format: functional;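 note: agonist potency for raising coactivator recruitment to the receptor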
# [7] = biological target: T1, ORF 73 (Human herpesvirus 8, UniProt O40947); assay: inhibitors of C-LANA binding to LBS DNA, dose response, biochemical, fluorescence polarization, cherry-picked samples (AID 504725); design: species or system Human gammaherpesvirus 8;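 note: fluorescence polarization of a labeled DNA duplex reporting LANA DNA binding; potency is for inhibitors that block LANA binding to the DNA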
# T1 sequence (O40947 whole entry): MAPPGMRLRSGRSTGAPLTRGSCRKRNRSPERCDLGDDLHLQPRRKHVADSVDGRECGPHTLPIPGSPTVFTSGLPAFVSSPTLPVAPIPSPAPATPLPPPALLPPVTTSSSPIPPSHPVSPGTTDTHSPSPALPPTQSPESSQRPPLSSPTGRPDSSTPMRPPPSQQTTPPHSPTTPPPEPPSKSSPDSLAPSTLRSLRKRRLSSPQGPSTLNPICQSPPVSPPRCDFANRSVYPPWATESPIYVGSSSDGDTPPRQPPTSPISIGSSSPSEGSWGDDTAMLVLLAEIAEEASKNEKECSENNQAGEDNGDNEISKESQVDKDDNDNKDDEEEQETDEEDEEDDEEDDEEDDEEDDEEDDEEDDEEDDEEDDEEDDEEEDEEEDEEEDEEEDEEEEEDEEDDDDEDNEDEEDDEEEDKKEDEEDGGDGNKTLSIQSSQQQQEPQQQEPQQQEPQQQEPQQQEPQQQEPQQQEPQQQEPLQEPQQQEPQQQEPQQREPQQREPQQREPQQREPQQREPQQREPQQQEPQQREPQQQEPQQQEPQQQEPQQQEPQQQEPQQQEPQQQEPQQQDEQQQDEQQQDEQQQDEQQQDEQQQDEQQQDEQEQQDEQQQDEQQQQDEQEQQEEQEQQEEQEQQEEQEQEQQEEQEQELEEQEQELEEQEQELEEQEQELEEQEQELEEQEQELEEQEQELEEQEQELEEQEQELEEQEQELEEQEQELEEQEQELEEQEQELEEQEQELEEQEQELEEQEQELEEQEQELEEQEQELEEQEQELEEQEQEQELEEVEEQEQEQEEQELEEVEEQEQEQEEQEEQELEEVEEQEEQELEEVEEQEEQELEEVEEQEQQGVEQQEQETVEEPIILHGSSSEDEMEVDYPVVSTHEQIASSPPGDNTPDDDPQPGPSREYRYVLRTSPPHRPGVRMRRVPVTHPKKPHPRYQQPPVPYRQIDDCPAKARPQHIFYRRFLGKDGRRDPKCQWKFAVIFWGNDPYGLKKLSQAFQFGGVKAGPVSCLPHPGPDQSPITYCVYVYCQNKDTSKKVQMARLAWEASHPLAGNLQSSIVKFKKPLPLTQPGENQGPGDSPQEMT
# [8] = ARNT/TACC3 interaction disruptors, potency, confirmation, biochemical, AlphaScreen, cherry-picked samples (AID 651703); format: functional, Homo sapiens;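 note: His-tagged ARNT PAS-B domain paired with GST-TACC3 E629A dimer coactivator fragment; potency of inhibitors that break up the complex and lower AlphaScreen signal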
# [9] = biological target: Luciferin 4-monooxygenase (Photinus pyralis, UniProt P08659); assay: Counter Screen for Luciferase-based Assay Positives. [Related pubchem assays: 620, 618, 411 ]
# [10] = system: HT-1080; assay: cytotoxicity in HT1080 fibrosarcoma cells, cell-based, fluorescence readout (AID 620); format: functional; details: Homo sapiens
# [11] = biological target: Alkaline phosphatase, placental type (Homo sapiens, UniProt P05187); assay: PLAP enzyme inhibitors, confirmation, biochemical, luminescence (AID 1512); format: functional
# [12] = biological target: T2, Alkaline phosphatase, tissue-nonspecific isozyme (Homo sapiens, UniProt P05186); assay: human TNAP enzyme inhibitors, SAR follow-up, biochemical, luminescent, dose response (AID 1056)
# T2 sequence (P05186 whole entry): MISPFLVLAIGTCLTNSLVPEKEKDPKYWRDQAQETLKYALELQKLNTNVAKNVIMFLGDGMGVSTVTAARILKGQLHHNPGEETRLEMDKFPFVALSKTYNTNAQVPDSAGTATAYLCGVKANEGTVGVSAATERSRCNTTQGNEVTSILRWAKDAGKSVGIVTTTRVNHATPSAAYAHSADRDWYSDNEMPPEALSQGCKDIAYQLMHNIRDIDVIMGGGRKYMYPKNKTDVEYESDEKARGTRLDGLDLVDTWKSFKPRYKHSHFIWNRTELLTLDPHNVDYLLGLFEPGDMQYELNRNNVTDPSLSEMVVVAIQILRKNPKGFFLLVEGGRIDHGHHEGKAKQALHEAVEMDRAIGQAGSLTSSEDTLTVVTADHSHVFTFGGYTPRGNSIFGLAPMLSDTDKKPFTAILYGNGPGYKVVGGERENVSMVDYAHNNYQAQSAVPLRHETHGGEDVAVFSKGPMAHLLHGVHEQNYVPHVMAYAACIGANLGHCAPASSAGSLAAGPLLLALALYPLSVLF
# [13] = Luminescence Cell-Based Dose Retest to Confirm Inhibitors of Cancer Stem Cells. [Related pubchem assays (depositor defined):AID2717, AID2721]; format: functional; details: Homo sapiens
# [14] = biological target: T3, Replicative DNA helicase DnaB (Mycobacterium tuberculosis, UniProt P9WMR3); assay: DnaB intein splicing inhibitors, dose response, biochemical, cell-free fluorescence (AID 449749); format: functional
# T3 sequence (P9WMR3 whole entry): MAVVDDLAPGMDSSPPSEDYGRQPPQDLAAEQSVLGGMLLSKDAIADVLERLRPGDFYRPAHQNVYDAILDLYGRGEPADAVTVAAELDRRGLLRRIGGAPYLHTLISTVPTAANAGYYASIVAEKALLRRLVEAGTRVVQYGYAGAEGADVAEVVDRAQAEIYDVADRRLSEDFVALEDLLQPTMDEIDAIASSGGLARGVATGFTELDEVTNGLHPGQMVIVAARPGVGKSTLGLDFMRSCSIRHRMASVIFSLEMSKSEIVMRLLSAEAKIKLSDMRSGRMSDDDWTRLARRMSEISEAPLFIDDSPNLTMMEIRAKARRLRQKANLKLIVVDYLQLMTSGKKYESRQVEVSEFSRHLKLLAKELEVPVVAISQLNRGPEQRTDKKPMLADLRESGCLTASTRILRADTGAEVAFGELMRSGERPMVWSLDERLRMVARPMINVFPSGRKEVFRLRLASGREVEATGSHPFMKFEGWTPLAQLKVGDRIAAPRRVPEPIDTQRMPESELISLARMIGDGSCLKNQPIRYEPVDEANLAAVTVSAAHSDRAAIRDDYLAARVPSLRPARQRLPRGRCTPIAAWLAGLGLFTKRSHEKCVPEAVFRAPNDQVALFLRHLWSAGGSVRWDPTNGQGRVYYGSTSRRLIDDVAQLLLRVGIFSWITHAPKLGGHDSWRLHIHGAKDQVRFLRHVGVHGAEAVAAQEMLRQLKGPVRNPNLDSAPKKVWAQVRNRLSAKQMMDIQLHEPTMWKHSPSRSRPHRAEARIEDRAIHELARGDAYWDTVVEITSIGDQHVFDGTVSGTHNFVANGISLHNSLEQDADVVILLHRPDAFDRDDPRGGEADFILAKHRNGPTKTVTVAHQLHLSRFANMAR
# [15] = growth suppression of PTEN-null colon cells, dose response, cell-based, HCT116 PTEN knockout (AID 1047); format: functional;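 note: HCT116 colon tumor cells with PTEN knocked out; cells exposed to compound for 60 hours before readout; potency for loss of cell viability measured by luminescence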
# [16] = biological target: T4, Protein RecA (Mycobacterium tuberculosis, UniProt P9WHJ3); assay: Fluorescence Cell-Free Homogeneous Dose Retest to Identify Inhibitors of RecA-Intein Splicing Activity. [Related pubchem assays (depositor defined):AID2097, AID2223, AID489010, AID492950]; format: functional
# T4 sequence (P9WHJ3 whole entry): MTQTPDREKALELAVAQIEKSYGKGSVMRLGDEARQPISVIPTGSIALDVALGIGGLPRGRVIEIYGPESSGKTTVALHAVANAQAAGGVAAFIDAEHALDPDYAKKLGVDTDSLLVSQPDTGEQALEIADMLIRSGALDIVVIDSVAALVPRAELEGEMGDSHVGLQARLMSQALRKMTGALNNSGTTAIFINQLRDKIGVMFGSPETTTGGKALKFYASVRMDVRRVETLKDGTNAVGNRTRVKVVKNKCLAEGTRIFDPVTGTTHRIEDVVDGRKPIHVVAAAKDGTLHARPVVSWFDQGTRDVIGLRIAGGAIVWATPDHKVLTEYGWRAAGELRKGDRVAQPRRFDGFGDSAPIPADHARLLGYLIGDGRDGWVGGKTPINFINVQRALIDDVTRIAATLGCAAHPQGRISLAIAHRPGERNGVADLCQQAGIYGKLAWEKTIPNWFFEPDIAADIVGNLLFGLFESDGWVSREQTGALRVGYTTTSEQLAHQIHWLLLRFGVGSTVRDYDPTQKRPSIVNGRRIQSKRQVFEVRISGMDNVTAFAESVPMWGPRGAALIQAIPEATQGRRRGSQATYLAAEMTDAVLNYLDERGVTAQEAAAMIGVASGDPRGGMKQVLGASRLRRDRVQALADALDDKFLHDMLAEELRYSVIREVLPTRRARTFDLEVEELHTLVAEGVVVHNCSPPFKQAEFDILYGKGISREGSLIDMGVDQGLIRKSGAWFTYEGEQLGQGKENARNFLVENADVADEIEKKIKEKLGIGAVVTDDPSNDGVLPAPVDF
# [17] = cells; format: functional
# [18] = growth suppression of beta-catenin-knockout colon cells, dose response, cell-based, HCT116, human colon tumor (AID 1045); format: functional;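 note: HCT116 colon tumor cells with beta catenin knocked out; cells exposed to compound for 60 hours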
# [19] = biological target: Glyceraldehyde-3-phosphate dehydrogenase (Homo sapiens, UniProt P04406)
# [20] = system: HEK293; assay: inhibitors of LMP1-driven NF-kB reporter, dose response, cell-based, HEK293, luciferase, cherry-pick (AID 588343); format: functional; details: Homo sapiens
# [21] = biological target: G-protein coupled receptor 55 (Homo sapiens, UniProt Q9Y2T6); assay: GPR55 antagonists blocking LPI-driven arrestin recruitment, primary screen, imaging, U2OS, beta-arrestin-GFP, LPI agonist (AID 2013); format: functional;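 note: antagonist potency measured as reduced agonist-driven arrestin aggregation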
# Alkaline phosphatase, placental type, sequence (P05187 whole entry): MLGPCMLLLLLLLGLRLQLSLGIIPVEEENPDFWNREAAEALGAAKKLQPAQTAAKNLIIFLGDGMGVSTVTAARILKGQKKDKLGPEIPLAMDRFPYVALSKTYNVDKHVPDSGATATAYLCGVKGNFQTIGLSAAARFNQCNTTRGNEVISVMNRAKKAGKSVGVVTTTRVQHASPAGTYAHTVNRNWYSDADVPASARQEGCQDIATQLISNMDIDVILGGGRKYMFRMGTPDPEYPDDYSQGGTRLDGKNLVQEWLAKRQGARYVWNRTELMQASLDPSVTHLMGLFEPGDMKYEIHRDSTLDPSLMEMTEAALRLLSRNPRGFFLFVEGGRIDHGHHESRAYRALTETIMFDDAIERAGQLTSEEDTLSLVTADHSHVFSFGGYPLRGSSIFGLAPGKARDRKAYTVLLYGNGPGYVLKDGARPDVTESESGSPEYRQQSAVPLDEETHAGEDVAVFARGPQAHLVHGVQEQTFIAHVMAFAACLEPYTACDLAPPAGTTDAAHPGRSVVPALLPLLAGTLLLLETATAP
# Peroxisome proliferator-activated receptor gamma/Nuclear receptor coactivator 3, sequence (P37231 whole entry): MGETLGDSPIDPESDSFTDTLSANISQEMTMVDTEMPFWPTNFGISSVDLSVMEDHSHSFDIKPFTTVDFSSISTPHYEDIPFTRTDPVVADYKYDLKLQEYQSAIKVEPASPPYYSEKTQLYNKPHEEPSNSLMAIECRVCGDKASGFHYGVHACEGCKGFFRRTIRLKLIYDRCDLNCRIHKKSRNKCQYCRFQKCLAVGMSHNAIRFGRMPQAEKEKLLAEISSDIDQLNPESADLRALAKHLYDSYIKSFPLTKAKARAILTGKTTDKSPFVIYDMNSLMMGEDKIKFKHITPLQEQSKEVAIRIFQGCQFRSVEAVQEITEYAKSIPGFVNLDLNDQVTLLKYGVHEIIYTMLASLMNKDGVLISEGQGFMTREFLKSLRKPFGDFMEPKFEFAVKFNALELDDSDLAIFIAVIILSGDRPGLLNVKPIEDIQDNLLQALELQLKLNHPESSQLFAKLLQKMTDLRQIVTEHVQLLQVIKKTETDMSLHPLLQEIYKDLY
# Peroxisome proliferator-activated receptor gamma/Nuclear receptor coactivator 3, sequence (Q9Y6Q9 whole entry, further chain): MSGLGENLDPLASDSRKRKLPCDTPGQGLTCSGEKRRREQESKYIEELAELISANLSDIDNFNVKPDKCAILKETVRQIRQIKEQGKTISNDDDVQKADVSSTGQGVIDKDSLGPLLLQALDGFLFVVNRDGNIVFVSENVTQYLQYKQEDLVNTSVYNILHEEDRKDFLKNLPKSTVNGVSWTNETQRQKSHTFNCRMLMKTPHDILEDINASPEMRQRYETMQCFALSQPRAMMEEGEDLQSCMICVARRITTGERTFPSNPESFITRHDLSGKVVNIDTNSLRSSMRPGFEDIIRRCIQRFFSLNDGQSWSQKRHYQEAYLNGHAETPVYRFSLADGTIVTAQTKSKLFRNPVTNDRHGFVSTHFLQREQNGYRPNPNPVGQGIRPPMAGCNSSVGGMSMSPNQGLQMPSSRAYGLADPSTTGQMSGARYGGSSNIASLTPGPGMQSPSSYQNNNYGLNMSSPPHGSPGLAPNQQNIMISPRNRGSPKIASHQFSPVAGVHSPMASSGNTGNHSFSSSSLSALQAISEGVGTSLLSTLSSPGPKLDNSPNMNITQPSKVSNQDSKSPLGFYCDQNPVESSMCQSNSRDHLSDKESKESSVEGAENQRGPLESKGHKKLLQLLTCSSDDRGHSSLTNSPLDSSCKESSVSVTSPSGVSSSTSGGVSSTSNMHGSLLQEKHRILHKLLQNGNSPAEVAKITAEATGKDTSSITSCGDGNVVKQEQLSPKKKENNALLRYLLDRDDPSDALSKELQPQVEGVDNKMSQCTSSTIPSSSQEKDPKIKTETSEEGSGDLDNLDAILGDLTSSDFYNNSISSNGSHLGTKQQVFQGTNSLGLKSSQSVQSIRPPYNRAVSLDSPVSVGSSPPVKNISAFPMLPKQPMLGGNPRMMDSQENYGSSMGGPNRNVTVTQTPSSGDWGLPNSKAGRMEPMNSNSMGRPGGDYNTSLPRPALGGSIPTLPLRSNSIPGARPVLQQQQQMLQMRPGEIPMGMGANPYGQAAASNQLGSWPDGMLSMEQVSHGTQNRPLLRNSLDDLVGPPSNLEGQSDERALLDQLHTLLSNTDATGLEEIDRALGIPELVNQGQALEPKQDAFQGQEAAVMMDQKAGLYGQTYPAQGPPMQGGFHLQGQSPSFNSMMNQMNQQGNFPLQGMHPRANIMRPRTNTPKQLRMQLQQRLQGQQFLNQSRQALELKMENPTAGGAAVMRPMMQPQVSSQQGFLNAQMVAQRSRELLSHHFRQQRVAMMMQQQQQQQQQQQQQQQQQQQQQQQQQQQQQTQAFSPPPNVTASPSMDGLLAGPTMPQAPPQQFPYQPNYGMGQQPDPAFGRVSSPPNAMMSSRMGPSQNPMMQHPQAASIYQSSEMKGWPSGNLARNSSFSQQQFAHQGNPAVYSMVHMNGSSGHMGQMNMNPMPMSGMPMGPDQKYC
# Peroxisome proliferator-activated receptor gamma/Nuclear receptor coactivator 1, sequence (P37231 whole entry): as the sequence (P37231 whole entry) above
# Peroxisome proliferator-activated receptor gamma/Nuclear receptor coactivator 1, sequence (Q15788 whole entry, further chain): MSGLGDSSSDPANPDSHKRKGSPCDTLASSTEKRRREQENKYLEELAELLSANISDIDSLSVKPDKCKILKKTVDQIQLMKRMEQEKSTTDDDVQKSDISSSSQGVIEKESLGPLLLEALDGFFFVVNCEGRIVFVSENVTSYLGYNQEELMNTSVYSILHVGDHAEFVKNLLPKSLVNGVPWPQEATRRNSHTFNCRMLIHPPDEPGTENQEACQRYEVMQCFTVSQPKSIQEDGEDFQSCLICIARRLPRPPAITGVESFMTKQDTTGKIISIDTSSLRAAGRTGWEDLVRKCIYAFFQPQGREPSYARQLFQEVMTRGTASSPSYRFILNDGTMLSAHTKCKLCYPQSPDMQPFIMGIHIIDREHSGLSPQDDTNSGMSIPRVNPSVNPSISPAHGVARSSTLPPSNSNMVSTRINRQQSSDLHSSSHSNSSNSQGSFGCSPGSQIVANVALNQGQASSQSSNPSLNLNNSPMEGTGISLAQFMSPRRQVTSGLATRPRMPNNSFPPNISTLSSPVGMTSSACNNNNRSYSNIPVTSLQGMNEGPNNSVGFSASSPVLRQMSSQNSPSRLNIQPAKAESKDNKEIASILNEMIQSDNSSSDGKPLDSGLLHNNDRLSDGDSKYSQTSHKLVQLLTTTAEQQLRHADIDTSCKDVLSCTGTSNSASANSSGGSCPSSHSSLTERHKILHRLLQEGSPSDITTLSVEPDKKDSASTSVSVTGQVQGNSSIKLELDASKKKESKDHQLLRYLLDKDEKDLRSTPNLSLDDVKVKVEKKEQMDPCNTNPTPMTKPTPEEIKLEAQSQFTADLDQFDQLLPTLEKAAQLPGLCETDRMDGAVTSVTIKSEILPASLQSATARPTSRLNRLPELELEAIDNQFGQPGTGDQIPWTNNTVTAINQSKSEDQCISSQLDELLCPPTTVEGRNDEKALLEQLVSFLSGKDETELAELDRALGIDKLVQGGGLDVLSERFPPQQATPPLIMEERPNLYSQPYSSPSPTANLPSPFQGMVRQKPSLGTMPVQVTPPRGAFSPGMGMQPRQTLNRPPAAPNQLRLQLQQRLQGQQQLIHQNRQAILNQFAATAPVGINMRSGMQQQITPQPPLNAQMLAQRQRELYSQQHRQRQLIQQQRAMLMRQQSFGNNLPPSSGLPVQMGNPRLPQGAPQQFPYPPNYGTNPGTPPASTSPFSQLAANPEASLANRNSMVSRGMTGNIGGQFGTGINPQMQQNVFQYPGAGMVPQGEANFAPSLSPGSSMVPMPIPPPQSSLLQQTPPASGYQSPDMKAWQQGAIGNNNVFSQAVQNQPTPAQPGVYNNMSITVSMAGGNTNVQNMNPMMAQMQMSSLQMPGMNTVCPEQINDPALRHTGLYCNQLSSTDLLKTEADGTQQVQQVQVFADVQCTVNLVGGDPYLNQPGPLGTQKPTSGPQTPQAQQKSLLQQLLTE
# DNA dC->dU-editing enzyme APOBEC-3A, sequence (P31941 whole entry): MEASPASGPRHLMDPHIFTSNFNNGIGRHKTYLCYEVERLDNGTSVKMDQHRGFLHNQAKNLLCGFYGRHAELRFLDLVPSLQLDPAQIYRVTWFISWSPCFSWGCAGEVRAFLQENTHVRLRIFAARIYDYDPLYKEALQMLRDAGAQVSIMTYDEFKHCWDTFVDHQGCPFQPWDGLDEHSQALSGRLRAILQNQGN
# DNA dC->dU-editing enzyme APOBEC-3G, sequence (Q9HC16 whole entry): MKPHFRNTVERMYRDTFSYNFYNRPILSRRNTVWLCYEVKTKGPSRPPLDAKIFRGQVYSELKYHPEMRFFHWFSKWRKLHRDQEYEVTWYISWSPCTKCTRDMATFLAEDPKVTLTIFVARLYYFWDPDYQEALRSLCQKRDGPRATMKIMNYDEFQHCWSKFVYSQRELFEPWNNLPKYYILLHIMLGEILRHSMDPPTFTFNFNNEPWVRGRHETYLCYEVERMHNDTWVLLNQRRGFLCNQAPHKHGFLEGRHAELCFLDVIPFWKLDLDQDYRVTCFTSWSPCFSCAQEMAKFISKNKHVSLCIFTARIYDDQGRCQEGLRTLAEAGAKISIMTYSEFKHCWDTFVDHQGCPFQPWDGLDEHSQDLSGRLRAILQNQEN
compound,measurement,setting,value
COc1ccc(/C=N\NC(=O)c2sccc2C)cc1Cn1nc(C)cc1C,IC50,[1],> 80 µM (inactive)
CCOC(=O)c1cc(C)nc(S)c1C#N,IC50,[2],> 100 µM (inactive)
same,IC50,[3],4.65 µM (active)
Cc1[nH]c2nc(S)nc-2cc1Br,IC50,[2],> 100 µM (inactive)
same,IC50,[3],1.98 µM (active)
CC(=O)NC1=NC(=O)/C(=C/c2cc(C)n(-c3ccc(NC(C)=O)cc3)c2C)S1,EC50,[4],> 79.4 µM (not active)
same,EC50,[5],> 79.4 µM (not active)
same,EC50,[6],> 79.4 µM (not active)
C/C(=N/NC(=O)c1ccncc1)c1cc2ccc(O)cc2oc1=O,AC50,[7],0.544 µM (active)
same,AC50,[8],116 µM (active)
O=C(Nc1ccc(NC(=O)c2ccco2)nc1)c1ccccn1,EC50,[9],9.44 µM (active)
same,EC50,[10],> 50 µM (not active)
CC1(C)Oc2ccc([N+](=O)[O-])cc2O1,IC50,[11],> 100 µM (inactive)
same,IC50,[12],> 100 µM (inactive)
Cc1n[nH]c2c1C(c1ccc(-c3ccc(Cl)cc3)o1)C(C#N)=C(N)O2 (stereo not given),AC50,[13],6.86 µM (active)
same,AC50,[14],41.8 µM (active)
same,EC50,[15],10.6 µM (active)
same,EC50,[4],> 79.4 µM (not active)
same,EC50,[5],> 79.4 µM (not active)
same,EC50,[16],28.6 µM (active)
same,EC50,[6],> 79.4 µM (not active)
same,IC50,[17],39.7 µM (active)
same,EC50,[18],9.79 µM (active)
Cc1ccc(-c2nc(N)nn2-c2ccccc2)cc1,IC50,[19],> 100 µM (not active)
same,IC50,[11],> 100 µM (inactive)
same,IC50,[12],> 100 µM (inactive)
CC(C)Cn1c(-c2ccccc2F)n[nH]c1=S,IC50,[2],> 100 µM (inactive)
same,IC50,[3],5.39 µM (active)
O=C(CN1C(=O)c2ccccc2S1(=O)=O)c1ccccc1,AC50,[20],1.36 µM (active)
same,EC50,[9],> 100 µM (not active)
same,EC50,[10],> 50 µM (not active)
O=C(CSc1nnc(-c2ccncc2)[nH]1)c1ccc(O)c(O)c1,IC50,[11],6.95 µM (active)
same,IC50,[12],6.53 µM (active)
Cc1noc(C)c1CN(C(=S)NC1CC2CCC1C2)c1ccccc1 (stereo not given),IC50,[21],3.74 µM (active)
O=C(C1CCC1)N1CCN(S(=O)(=O)c2ccc([N+](=O)[O-])cc2)CC1,IC50,[1],> 80 µM (inactive)
Cc1c(CCOC(=O)c2ccc(N3CCOCC3)c([N+](=O)[O-])c2)sc[n+]1CC#N,IC50,[21],5.68 µM (active)
CS(=O)(=O)N(CC(=O)NCc1ccncc1)Cc1ccc(Cl)cc1,EC50,[4],> 79.4 µM (not active)
same,EC50,[5],> 79.4 µM (not active)
same,EC50,[6],> 79.4 µM (not active)
CCCCCC/C=C/c1ccc(OC)c([C@H]2[C@H]3C=CC[C@@H](C)[C@@H]3C(=O)N2Cc2ccccc2)c1,IC50,[1],> 80 µM (inactive)
